In patent publication EP2864333B1, “ETODOLAC DERIVATIVES AS HCV NS5B POLYMERASE INHIBITORS” (priority 2012, dated 2014) one finds inhibition and IC50 data, which are given here for eight compounds.

Assay [1] addresses T1, HCV NS5B RdRp (NS5BCdelta21) (Hepatitis C virus genotype 1b, UniProt P26663).
T1 construct: 500 ng of NS5BCdelta21; made in house; host or cells: Escherichia coli DH5alpha
Briefly: HCV NS5B RNA-dependent RNA polymerase (RdRp) assay, poly rA/U12 primer-dependent elongation. Type of assay: biochemical. The following applies: read-out: Anti-HCV Activity (%Inhibition, 100 µM).

Assay [2] addresses T1, HCV NS5B RdRp (NS5BCdelta21). Described as above. In kind it is biochemical. The note with it: for inhibition at 100 µM: read-out: Anti-NS5B Activity (% Inhibition, 100 µM); for inhibition at 200 µM: read-out: Anti-NS5B Activity (% Inhibition, 200 µM). How it is done:
The RdRp activity of NS5B was evaluated by the standard primer-dependent elongation reactions employing poly rA/U12 template-primers (TP). Reaction mixtures containing 20 mM Tris-HCl (pH 7.0), 100 mM NaCl, 100 mM Na-glutamate, 0.5 mM DTT, 0.01% BSA, 0.01% Tween-20, 5% glycerol, 20 U/ml of RNasin, 0.5 microM of poly rA/U12, 25 microM UTP, 2-5 microCi [alpha-32P]UTP, 500 ng of NS5BCdelta21 and 0.5 mM MnCl2 with or without inhibitors in a total volume of 25 microliters were incubated for 1 h at 30°C. Reactions were quenched by the addition of ice cold 5% (v/v) trichloroacetic acid (TCA) containing 0.5 mM pyrophosphate (PPi), the denatured polymeric RNA products were transferred to GF-B filters and the amount of radioactive UMP incorporated into RNA products was quantified on a liquid scintillation counter (Packard). The concentrations of the compounds inhibiting 50% of NS5B RdRp activity (IC50) were calculated from the inhibition curves as a function of inhibitor concentration. Nsp12 activity was similarly evaluated except that incubations were carried out at 25°C for optimal enzymatic activity.
The ability of the compounds to inhibit HCV NS5B RdRp activity was investigated in vitro by polyrA-U12 extension assay as described in experimental section by Kaushik-Basu N, et al.. The compounds SGK 224-230, 313 and SGK 238- 244, 315 were reconstituted in DMSO as 50 mM stocks, and serially diluted in DMSO to obtain working stocks.
Preliminary screening was carried out at 100 µM to identify a wider range of compounds. […] NS5B RdRp activity in the absence of the inhibitor was taken as 100 percent after subtraction of residual background activity. The concentration of DMSO in all reactions was kept constant at 5%. […] Curves were fitted to data points using nonlinear regression analysis and IC50 values were interpolated from the resulting curves using GraphPad Prism 3.03 software.

Where [3] appears, read: dose-response curves, 8-10 concentrations, duplicate, two independent experiments, read-out: IC50.

Like-named read-outs stand apart in the source and are kept apart here.

T1 sequence (P26663 2420-2989): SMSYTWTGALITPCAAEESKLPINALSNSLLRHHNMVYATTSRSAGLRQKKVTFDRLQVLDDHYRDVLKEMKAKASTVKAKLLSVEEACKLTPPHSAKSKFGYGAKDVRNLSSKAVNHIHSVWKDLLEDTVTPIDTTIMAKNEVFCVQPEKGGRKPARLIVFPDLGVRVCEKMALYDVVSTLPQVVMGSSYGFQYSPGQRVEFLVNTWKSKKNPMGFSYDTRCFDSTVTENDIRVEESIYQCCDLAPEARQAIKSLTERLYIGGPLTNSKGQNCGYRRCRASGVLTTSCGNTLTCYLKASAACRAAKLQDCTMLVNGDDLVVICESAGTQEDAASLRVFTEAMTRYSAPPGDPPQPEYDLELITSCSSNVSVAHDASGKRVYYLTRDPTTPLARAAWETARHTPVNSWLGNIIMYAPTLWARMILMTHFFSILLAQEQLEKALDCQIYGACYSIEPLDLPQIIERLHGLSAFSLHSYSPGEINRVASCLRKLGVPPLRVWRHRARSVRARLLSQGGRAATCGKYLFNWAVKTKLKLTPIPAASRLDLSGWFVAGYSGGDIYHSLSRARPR

For `CCc1cccc2c3c([nH]c12)C(CC)(CC(=O)O)OCC3` (racemic) [Etodolac, (R,S)-2-[1,8-diethyl-1,3,4-tetrahydrapyrano[3,4-b]indole-1-yl]acetic acid], the inhibition at 100 µM in assay [1] turned out to be 7.4%.
Regarding `CCc1cccc2c3c([nH]c12)C(CC)(CC(=O)OC)OCC3` (racemic) [SGK 196, methyl (1,8-diethyl-1,3,4,9-tetrahydropirano[3,4-b]indole-1-yl) acetate], in assay [2], the inhibition at 100 µM worked out at 6.4 ± 0.9% and the inhibition at 200 µM stood at 13.3 ± 1.2%.
In the same order, the values of `CCc1cccc2c3c([nH]c12)C(CC)(CC(=O)NN)OCC3` (stereo not drawn) [SGK 197, 2-(1,8-diethyl-1,3,4,9-tetrahydropyrano[3,4-b]indole-1-yl)acetohydrazide] are 11.4 ± 0.2% and 19 ± 4.4%.
For the compound `CCc1cccc2c3c([nH]c12)C(CC)(CC(=O)NN=Cc1cccc(F)c1)OCC3` (stereo not drawn) [SGK 202, 2-(1,8-Diethyl-1,3,4,9-tetrahydropyrano[3,4-b]indole-1-yl) acetic acid [(3-fluorophenyl)methylene] hydrazide], in assay [2], half-maximal inhibition (IC50) required 35.9 ± 1.4 µM, the inhibition at 100 µM is 61.6 ± 0.4% and the inhibition at 200 µM was found to be 66.4 ± 5.8%.
With `CCc1cccc2c3c([nH]c12)C(CC)(CC(=O)NNC(=S)NC)OCC3` (stereo not drawn) [SGK 224, 1-[2-(1,8-diethyl-1,3,4,9-tetrahydropyrano[3,4-b]indol-1-yl)acetyl]-4-methyl thiosemicarbazide], the IC50 in assay [2] (setting [3]) came out at 18.7 µM. For the same compound, in assay [2], the inhibition at 100 µM turned out to be 76.2 ± 0.5% and the inhibition at 200 µM was determined as 77.5 ± 1.3%.
The like results for `C=CCNC(=S)NNC(=O)CC1(CC)OCCc2c1[nH]c1c(CC)cccc21` (stereo not drawn) [SGK 229, 1-[2-(1,8-Diethyl-1,3,4,9-tetrahydropyrano[3,4-b]indole-1-yl)acetyl]-4-allyl thiosemicarbazide] were, in that order, 16.8 ± 1.2 µM, 78.6 ± 2.1% and 81.6 ± 0.8%.
As to `CCc1cccc2c3c([nH]c12)C(CC)(Cc1n[nH]c(=S)n1C)OCC3` (stereo not drawn) [SGK 238, 5-[(1,8-diethyl-1,3,4,9-tetrahydropyrano[3,4-b]indol-1-yl)methyl]-4-methyl-2,4-dihydro-3H-1,2,4-triazole-3-thione], in assay [2], 14.8 µM corresponded to half-maximal inhibition (IC50), the inhibition at 100 µM amounted to 78.9 ± 0.7% and the inhibition at 200 µM was found to be 86 ± 0.6%.
On to `COc1cc(O)c2c(c1)oc(=O)c1c3cc(O)c(O)cc3oc21` [Wedelolacton, reference compound], for which, in assay [2] (setting [3]), the IC50 is 36 µM.
